From patent US20250243196A1, “CITRON KINASE INHIBITORS” (The Cleveland Clinic Foundation, priority 2021, published 2025) come the findings set out here.

Experiment [1] has as its target AUR-B (Homo sapiens (Human), UniProt Q96GD4). Description: KinaseProfiler radiometric assay (14-835KP). Format: biochemical. Conditions: mean of at least two independent experiments. An excerpt: (§1) In another aspect, disclosed is a method of inhibiting citron kinase in a sample, comprising contacting the sample with a compound described herein (e.g., a compound of formula (I) or a pharmaceutically acceptable salt thereof), or a pharmaceutical composition described herein (e.g., a pharmaceutical composition comprising a compound of formula (I) or a pharmaceutically acceptable salt thereof), in an amount effective to inhibit citron kinase. In some embodiments, the step of contacting the sample with the compound comprises administering the compound to a subject (e.g., a subject) suffering from cancer. Methods of determining kinase inhibition are well known in the art. For example, kinase activity of an enzyme and the inhibitory capacity of a test compound can be determined by measuring enzyme specific phosphorylation of a substrate. Commercial assays and kits can be employed. For example, kinase inhibition can be determined using a radiometric binding assay, such as using KinaseProfiler™ technology (Eurofins Discovery). This assay method directly detects product formation without the use of modified substrates or coupling enzymes. Test compounds are incubated with kinase, substrate, required cofactors and radioisotope labeled ATP. Following incubation, unreacted radioactive ATP is removed by washing and incorporation of the radiolabeled phosphate into the kinase substrate is assayed to detect phosphoryltransferase activity, which is directly proportional to the amount of phosphorylated substrate. Inhibition of the kinase by a kinase inhibitor prevents phosphorylation of the substrate and thereby limits the incorporation of radiolabeled phosphate. Such an assay is compatible with a microwell assay format, allowing simultaneous determination of IC50 of multiple compounds.
(§2) The effect of various compounds on the inhibition of other kinases has also been determined. Table 2 reports measured IC50 values; value units are nanomolar inhibition.

For experiment [2], the target named is T1, Citron kinase (Homo sapiens (Human), UniProt O14578). In words: TR-FRET citron kinase assay (Eurofins Cat #2628). Type of experiment: biochemical. Conditions: mean of at least two independent assays; read-out: TR-FRET CitK IC50. An excerpt: Compounds were screened for biochemical kinase activity (Eurofins Discovery, France) using one of two assays. […] All values in Table 1 are the mean of at least two independent assays.
T1 sequence (O14578 whole entry): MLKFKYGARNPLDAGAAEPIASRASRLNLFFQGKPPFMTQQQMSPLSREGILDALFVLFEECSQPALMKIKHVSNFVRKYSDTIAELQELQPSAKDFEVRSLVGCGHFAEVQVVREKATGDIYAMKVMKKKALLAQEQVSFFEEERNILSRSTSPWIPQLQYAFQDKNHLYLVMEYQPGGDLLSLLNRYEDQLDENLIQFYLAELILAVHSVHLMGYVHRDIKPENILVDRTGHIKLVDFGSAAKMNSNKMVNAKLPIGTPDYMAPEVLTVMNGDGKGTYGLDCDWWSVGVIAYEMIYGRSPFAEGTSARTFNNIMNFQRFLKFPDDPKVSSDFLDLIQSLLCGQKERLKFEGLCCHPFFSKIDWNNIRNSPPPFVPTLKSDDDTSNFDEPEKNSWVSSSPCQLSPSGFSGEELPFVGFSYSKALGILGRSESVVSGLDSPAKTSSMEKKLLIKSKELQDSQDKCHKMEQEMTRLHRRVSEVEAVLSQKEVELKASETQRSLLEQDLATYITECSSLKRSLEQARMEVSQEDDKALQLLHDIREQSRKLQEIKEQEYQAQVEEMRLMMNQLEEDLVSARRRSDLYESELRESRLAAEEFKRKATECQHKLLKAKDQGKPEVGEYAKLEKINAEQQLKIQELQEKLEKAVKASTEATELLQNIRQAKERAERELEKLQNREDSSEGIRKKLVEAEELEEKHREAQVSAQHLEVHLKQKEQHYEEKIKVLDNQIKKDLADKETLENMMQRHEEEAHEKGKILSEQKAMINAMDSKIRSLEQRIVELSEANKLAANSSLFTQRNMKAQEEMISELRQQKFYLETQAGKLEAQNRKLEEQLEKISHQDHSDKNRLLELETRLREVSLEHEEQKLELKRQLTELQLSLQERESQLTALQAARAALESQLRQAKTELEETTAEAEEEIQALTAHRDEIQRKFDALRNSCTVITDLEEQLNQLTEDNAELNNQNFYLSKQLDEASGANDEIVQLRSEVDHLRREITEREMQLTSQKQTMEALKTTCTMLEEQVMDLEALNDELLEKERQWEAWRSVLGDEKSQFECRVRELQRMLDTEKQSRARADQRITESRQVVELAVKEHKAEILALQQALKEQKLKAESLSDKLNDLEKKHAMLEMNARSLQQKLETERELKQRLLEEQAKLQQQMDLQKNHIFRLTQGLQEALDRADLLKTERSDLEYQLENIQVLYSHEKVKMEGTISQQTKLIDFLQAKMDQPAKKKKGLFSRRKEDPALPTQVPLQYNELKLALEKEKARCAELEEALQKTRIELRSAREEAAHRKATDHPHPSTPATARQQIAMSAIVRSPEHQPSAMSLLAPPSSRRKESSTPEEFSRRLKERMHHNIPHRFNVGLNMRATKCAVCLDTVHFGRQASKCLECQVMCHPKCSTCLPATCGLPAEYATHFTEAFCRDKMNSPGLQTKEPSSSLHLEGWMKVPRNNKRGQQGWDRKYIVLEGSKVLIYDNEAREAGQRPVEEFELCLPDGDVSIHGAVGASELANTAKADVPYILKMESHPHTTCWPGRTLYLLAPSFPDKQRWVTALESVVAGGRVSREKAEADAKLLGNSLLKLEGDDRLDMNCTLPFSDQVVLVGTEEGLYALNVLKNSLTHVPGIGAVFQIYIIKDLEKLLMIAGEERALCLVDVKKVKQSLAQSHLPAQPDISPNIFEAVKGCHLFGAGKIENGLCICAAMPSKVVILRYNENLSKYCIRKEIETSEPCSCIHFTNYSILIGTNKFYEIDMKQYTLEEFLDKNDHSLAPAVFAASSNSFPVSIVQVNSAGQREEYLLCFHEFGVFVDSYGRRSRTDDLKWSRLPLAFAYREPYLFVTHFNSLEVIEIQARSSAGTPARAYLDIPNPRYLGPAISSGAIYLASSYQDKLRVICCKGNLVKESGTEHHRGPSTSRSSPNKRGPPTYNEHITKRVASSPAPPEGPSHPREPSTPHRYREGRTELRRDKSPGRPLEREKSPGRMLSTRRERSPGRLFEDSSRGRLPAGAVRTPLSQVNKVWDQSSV
A general note: Time-resolved FRET reads energy transfer from a long-lived donor to a nearby acceptor.

In experiment [3] the target is ROCK-1 (Homo sapiens (Human), UniProt Q13464). Description: KinaseProfiler radiometric assay (14-601KP). Conditions: mean of at least two independent experiments. Format: biochemical.
Description: as §1, §2

Experiment [4] addresses T1, Citron kinase. Description: Radiometric citron kinase assay (Eurofins Cat #16-040KP). Conditions: mean of at least two independent assays; read-out: Radiometric CitK IC50. Format: biochemical. The procedure, abridged:
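Radiometric KinaseProfiler format: test compound incubated with kinase, substrate, cofactors and radiolabelled ATP; unreacted ATP washed away and radiolabelled phosphate incorporated into substrate measured. IC50 derived from inhibition of phosphorylation. Values are means of at least two independent assays.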

Experiment [5] addresses TRK-B (Homo sapiens (Human), UniProt Q16620). Description: KinaseProfiler radiometric assay (14-507KP). Format: biochemical. Conditions: mean of at least two independent experiments.
Description: as §1, §2

Experiment [6] concerns the target AKT-1 (Homo sapiens (Human), UniProt P31749). In words: KinaseProfiler radiometric assay (14-276KP). Format: biochemical. Conditions: mean of at least two independent experiments.
Description: as §1, §2

The target of experiment [7] is IKKβ (Homo sapiens (Human), UniProt O14920). In words: KinaseProfiler radiometric assay (14-485KP). Type of experiment: biochemical. Conditions: mean of at least two independent experiments.
Description: as §1, §2

For experiment [8], the target named is PKAα (Homo sapiens (Human), UniProt P17612). In words: KinaseProfiler radiometric assay (14-440KP). Format: biochemical. Conditions: mean of at least two independent experiments.
Description: as §1, §2

Experiment [9] deals with NanoLuc-CITK (full-length human CITK) (Homo sapiens (Human), UniProt O14578). In words: NanoBRET intracellular target engagement assay. Format: cell-based. Conditions: for IC50: HEK293T cells transfected with NanoLuc-CITK, Tracer K10 1 μM, 2 hours. How it is done:
In-cell Kd values were evaluated with a NanoBRET Target Engagement Assay essentially as recommended by the manufacturer (Promega Corporation—for details see https://www.promega.com/resources/technologies/nanoluc-luciferase-enzyme/cellular-target-engagement/).
HEK293T cells were transfected with 5.0 μg/mL sterile NanoLuc-CITK DNA, 5.0 μg/mL Transfection Carrier DNA, and 30 μL/mL FugeneHD® (Promega) in Opti-Mem™ (Thermo) media at a cell density of 250,000 cells/mL. […] 5 μL of the 25× Tracer K10 solution was added to each well. Next, designated inhibitors were prepared from powder as 10 mM DMSO stocks and then further diluted to 10× the final assay concentration in Opti-Mem™. 12-pt dose-response curves were prepared by 3×-serial dilution. […] A 3× Complete Substrate+Inhibitor solution, containing 6 mL of Opti-Mem™, 36 μL of NanoBRET Nano-Glo Substrate, and 12 μL Extracellular NanoLuc Inhibitor was freshly prepared for each plate. 50 μL of the 3× Complete Substrate+Inhibitor solution was added to all wells and the plate was incubated for 2 min with 500 RPM shaking. The bottom of the plates were covered with black plate seals and then measured on a Cytation 5 plate reader (Biotek) with a NanoBRET Filter Cube (Biotek; 450/50 emission & 610LP emission). Background corrected BRET ratios (in mBU) were calculated in Excel and IC50's were subsequently extracted using four-parameter non-linear regression in GraphPad Prism 8.
In general terms: BRET reads energy transfer from a luciferase to a nearby fluorophore.

The target of experiment [10] is ROCK-2 (Homo sapiens (Human), UniProt O75116). Description: KinaseProfiler radiometric assay (14-451KP). Type of experiment: biochemical. Conditions: mean of at least two independent experiments.
Description: as §1, §2

The target in experiment [11] is DRAK2 (Homo sapiens (Human), UniProt O94768). Description: KinaseProfiler radiometric assay (16-003KP). Type of experiment: biochemical. Conditions: mean of at least two independent experiments.
Description: as §1, with “In” for “In another aspect, disclosed is a method of inhibiting citron kinase in a sample, comprising contacting the sample with a compound described herein (e.g., a compound of formula (I) or a pharmaceutically acceptable salt thereof), or a pharmaceutical composition described herein (e.g., a pharmaceutical composition comprising a compound of formula (I) or a pharmaceutically acceptable salt thereof), in an amount effective to inhibit citron kinase. In”

Experiment [12] has as its target Mnk2 (Homo sapiens (Human), UniProt Q9HBH9). In words: KinaseProfiler radiometric assay (14-664KP). Type of experiment: biochemical. Conditions: mean of at least two independent experiments.
Description: as §1, with “Test compounds are incubated with kinase, substrate, required cofactors and radioisotope labeled ATP. Following incubation, unreacted radioactive ATP is removed by washing and incorporation of the radiolabeled phosphate into the kinase substrate is assayed to detect phosphoryltransferase activity, which is directly proportional to the amount of phosphorylated substrate. Inhibition of the kinase by a kinase inhibitor prevents phosphorylation of the substrate and thereby limits the incorporation of radiolabeled phosphate. Such an assay is compatible with a microwell assay format, allowing simultaneous determination of IC50 of multiple compounds.” left out
as §2

Experiment [13] addresses ACK1 (Homo sapiens (Human), UniProt Q07912). Description: KinaseProfiler radiometric assay (14-756KP). Format: biochemical. Conditions: mean of at least two independent experiments.
Description: as §1, with “In” for “In another aspect, disclosed is a method of inhibiting citron kinase in a sample, comprising contacting the sample with a compound described herein (e.g., a compound of formula (I) or a pharmaceutically acceptable salt thereof), or a pharmaceutical composition described herein (e.g., a pharmaceutical composition comprising a compound of formula (I) or a pharmaceutically acceptable salt thereof), in an amount effective to inhibit citron kinase. In”

Experiment [14] deals with BIKE (Homo sapiens (Human), UniProt Q9NSY1). Description: KinaseProfiler radiometric assay (16-044KP). Type of experiment: biochemical. Conditions: mean of at least two independent experiments.
Description: as §1, with “Test compounds are incubated with kinase, substrate, required cofactors and radioisotope labeled ATP. Following incubation, unreacted radioactive ATP is removed by washing and incorporation of the radiolabeled phosphate into the kinase substrate is assayed to detect phosphoryltransferase activity, which is directly proportional to the amount of phosphorylated substrate. Inhibition of the kinase by a kinase inhibitor prevents phosphorylation of the substrate and thereby limits the incorporation of radiolabeled phosphate. Such an assay is compatible with a microwell assay format, allowing simultaneous determination of IC50 of multiple compounds.” left out
as §2

The target in experiment [15] is AAK1 (Homo sapiens (Human), UniProt Q2M2I8). Description: KinaseProfiler radiometric assay (16-043KP). Format: biochemical. Conditions: mean of at least two independent experiments.
Description: as §1, with “Test compounds are incubated with kinase, substrate, required cofactors and radioisotope labeled ATP. Following incubation, unreacted radioactive ATP is removed by washing and incorporation of the radiolabeled phosphate into the kinase substrate is assayed to detect phosphoryltransferase activity, which is directly proportional to the amount of phosphorylated substrate. Inhibition of the kinase by a kinase inhibitor prevents phosphorylation of the substrate and thereby limits the incorporation of radiolabeled phosphate. Such an assay is compatible with a microwell assay format, allowing simultaneous determination of IC50 of multiple compounds.” left out
as §2

Experiment [16] deals with HIPK4 (Homo sapiens (Human), UniProt Q8NE63). Description: KinaseProfiler radiometric assay (15-003KP). Format: biochemical. Conditions: mean of at least two independent experiments.
Description: as §1, with “Test compounds are incubated with kinase, substrate, required cofactors and radioisotope labeled ATP. Following incubation, unreacted radioactive ATP is removed by washing and incorporation of the radiolabeled phosphate into the kinase substrate is assayed to detect phosphoryltransferase activity, which is directly proportional to the amount of phosphorylated substrate. Inhibition of the kinase by a kinase inhibitor prevents phosphorylation of the substrate and thereby limits the incorporation of radiolabeled phosphate. Such an assay is compatible with a microwell assay format, allowing simultaneous determination of IC50 of multiple compounds.” left out
as §2

The test system of experiment [17] is VCaP cells. In words: Androgen-induced citron kinase expression, western blotting. Type of experiment: cell-based. Conditions: low doses of androgen, 48 hours. How it is done: (§3) FIG. 1A: LNCaP (top panel) and VCaP cells (bottom panel) were treated with increasing doses of the synthetic androgen R1881 for 48 hours. CIT and j-actin expression were analyzed by western blotting. FIG. 1B: LNCaP (left panel) and VCaP cells (right panel) were treated with increasing doses of the natural androgen dihydrotestosterone (DHT) and analyzed as for FIG. 1A.
(In western blotting, separated proteins are transferred to a membrane and probed.)

The subject of experiment [18] is LNCaP cells. The experiment is described as above. Type of experiment: cell-based. Conditions: low doses of androgen, 48 hours. How it is done: as §3

NanoLuc-CITK (full-length human CITK), sequence (O14578 other isoform, or with tags, fused parts or gaps): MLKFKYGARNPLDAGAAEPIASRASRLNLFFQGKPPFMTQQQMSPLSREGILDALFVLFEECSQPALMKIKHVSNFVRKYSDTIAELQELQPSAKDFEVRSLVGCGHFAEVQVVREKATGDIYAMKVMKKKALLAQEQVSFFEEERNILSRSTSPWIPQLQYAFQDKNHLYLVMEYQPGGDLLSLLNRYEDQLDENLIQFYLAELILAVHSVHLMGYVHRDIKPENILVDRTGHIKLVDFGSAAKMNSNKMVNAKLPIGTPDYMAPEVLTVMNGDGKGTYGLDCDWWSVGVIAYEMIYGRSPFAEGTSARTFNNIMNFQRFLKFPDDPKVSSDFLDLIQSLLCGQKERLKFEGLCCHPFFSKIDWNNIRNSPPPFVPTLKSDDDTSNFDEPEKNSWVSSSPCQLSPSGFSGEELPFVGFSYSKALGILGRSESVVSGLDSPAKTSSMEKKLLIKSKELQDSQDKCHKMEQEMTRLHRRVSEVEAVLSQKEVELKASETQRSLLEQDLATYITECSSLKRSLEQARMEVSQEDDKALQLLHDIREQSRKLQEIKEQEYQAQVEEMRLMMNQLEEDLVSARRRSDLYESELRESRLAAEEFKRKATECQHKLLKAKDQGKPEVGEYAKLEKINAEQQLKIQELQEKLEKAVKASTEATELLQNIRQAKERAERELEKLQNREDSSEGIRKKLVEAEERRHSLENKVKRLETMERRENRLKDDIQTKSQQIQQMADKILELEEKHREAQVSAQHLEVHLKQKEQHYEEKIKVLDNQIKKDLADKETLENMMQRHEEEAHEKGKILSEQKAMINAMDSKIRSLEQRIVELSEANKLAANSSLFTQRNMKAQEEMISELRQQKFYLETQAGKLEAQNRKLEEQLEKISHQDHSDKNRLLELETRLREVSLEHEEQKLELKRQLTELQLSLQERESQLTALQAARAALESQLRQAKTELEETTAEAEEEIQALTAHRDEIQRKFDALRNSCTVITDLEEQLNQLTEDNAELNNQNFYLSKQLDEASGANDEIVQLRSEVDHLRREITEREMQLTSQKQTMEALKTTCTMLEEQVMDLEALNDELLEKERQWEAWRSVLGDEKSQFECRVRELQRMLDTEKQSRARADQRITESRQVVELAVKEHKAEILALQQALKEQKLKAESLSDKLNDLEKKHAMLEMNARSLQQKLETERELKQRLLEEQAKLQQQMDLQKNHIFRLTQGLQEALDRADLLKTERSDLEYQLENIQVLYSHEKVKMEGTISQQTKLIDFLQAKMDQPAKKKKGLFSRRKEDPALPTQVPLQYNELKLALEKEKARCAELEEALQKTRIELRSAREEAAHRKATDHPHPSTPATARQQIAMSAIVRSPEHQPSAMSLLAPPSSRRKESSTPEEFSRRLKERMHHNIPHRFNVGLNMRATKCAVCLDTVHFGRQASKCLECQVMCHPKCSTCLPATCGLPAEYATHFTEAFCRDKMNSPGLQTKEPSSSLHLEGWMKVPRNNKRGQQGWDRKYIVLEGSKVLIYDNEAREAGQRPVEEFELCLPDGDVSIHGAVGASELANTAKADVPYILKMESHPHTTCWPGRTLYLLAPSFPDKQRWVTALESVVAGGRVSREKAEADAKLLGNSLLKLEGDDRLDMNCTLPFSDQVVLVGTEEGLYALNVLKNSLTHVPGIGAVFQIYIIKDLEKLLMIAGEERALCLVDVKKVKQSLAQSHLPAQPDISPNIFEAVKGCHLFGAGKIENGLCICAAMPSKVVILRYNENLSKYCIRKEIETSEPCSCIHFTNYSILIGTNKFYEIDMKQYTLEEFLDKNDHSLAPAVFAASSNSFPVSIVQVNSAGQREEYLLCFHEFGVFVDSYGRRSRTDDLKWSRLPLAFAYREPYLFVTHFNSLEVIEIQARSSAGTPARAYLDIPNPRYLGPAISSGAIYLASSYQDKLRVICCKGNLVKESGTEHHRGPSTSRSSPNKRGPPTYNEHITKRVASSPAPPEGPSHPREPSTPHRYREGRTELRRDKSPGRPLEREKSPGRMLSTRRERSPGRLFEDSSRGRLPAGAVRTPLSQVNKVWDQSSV
TRK-B, sequence (Q16620 32-822): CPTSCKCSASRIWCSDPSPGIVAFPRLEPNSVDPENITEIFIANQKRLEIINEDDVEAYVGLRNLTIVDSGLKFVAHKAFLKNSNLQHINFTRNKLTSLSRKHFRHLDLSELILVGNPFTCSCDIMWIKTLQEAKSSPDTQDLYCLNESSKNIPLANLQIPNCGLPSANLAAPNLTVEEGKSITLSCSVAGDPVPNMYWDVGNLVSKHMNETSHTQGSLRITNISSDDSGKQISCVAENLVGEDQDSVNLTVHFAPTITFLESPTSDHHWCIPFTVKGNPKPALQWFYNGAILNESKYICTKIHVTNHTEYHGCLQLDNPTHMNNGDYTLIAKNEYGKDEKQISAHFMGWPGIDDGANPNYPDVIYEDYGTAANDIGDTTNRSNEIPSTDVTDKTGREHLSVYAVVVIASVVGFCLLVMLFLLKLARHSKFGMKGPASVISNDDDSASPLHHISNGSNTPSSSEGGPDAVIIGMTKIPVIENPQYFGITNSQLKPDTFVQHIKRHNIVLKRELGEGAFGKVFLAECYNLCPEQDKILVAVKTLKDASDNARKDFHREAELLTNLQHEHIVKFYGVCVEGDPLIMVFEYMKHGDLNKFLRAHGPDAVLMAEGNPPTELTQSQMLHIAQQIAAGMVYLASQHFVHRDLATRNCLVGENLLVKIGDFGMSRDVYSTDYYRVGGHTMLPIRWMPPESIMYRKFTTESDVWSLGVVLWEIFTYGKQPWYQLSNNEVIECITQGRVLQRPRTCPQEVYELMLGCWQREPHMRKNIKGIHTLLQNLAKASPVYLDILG

Broadly, the IC50 is the point on the concentration scale where inhibition reaches its midpoint. The term Kd denotes the constant that tells how readily two partners part at equilibrium. Low values mean tighter binding, high ones weaker binding. Turning to `CC(C)C[C@@H](N)C(=O)Nc1ccc(-c2ccnc3[nH]ccc23)cc1` [Compound F-9, (2R)-2-Amino-4-methyl-N-[4-(1H-pyrrolo[2,3-b]pyridin-4-yl)phenyl]pentanamide], the IC50 in experiment [1] is 230 nM; in experiment [2], 4.9 nM; in [3], 230 nM; in [4] it was 12.5 nM; in experiment [5], above 3000 nM; in [6] it was 761 nM. Further, the IC50 in experiment [7] was 111 nM; in experiment [8], 7 nM; in [9] it was 67 nM; in experiment [10], 18 nM. The compound also displayed a Kd in experiment [9] of 13 nM.
For the compound `N[C@H](Cc1ccccc1)C(=O)Nc1ccc(-c2ccnc3[nH]ccc23)cc1` [Compound F-33, (R)-N-(4-(1H-pyrrolo[2,3-b]pyridin-4-yl)phenyl)-2-amino-3-phenylpropanamide], the IC50 was 104 nM in [1]; 107 nM in [3]; 332 nM in [5]; 436 nM in experiment [6]; 3 nM in experiment [8].
Take `Cc1cc2c(-c3ccc(NC(=O)[C@H](N)C(C)(C)O)cc3C)ccnc2[nH]1` [Compound F-140, (2R)-2-Amino-3-hydroxy-3-methyl-N-[3-methyl-4-(2-methyl-1H-pyrrolo[2,3-b]pyridin-4-yl)phenyl]butanamide]: the IC50 is above 3 µM in [11]; 1990 nM in experiment [12]; 40 nM in [4]; above 3 µM in experiment [13]; above 3 µM in [14]; above 3000 nM in [7]. Further, the IC50 in experiment [8] is above 3000 nM; in [15], 1910 nM; in experiment [16], above 3 µM; in [9], 580 nM; in experiment [10] it was above 3000 nM. In experiment [9], this compound yielded a Kd of 108 nM.
With `C[C@]1(O)CC[C@H]2[C@@H]3CCC4=CC(=O)CCC4=C3C=C[C@@]21C` [Compound R1881], the citron kinase expression result in [17] and in [18] was “significant increase” throughout.
